The NIST ThermoML archive (doi:10.1016/j.tca.2006.10.005)
± gives the expanded uncertainty stated by the source.

Assay: molar heat capacity at constant pressure
Conditions: 101.33 kPa, Crystal

O=C([O-])[O-].[Li+].[Li+] [lithium carbonate]
Conditions	molar heat capacity at constant pressure [J/K/mol]
303.15 K	99.89 ± 0.63
323.15 K	100.98 ± 0.85
343.15 K	107.69 ± 1
363.15 K	111.21 ± 1.1
383.15 K	115.61 ± 1.3
403.15 K	116.88 ± 2.4
443.15 K	120.05 ± 3.7
483.15 K	129.08 ± 1.9
533.15 K	132.77 ± 2.9
563.15 K	137.29 ± 3.1
